Here are results for 87 molecules from a melting point compilation (Tetko et al.; mined from patent text by program, amines drawn as free bases though some values may be those of a salt).

The structures appear in SMILES notation. Residues, ends and D or L forms follow the SMILES beside them. *: point of attachment. Boc = CC(C)(C)OC(=O)*

Usually melting point stands for the temperature, or range, at which the solid turns liquid. In turn, `C=CCN1CCC(=O)N(c2c(C)cccc2C)C1=S` gave a melting point of 88 to 91 °C.
With `CCOC(=O)C(SC)c1ccccc1NC` (configuration not stated), the melting point was 87.5 to 88.5 °C.
The figure for `CCCCn1c(C)c(C)cc(NC(=O)c2ccc(F)cc2)c1=O` is 129 to 130 °C; for `CC=C(Cl)C(Cl)CC(O)(Cn1cncn1)C1(Cl)CC1` (configuration not stated) it is 79 to 80 °C.
The molecule `Nc1ncnc2ncn(Cc3ccccc3)c12` registered a melting point of 252 to 255 °C.
With `CCc1cc(C#N)cc2c(NCc3ccc(OC)c(Cl)c3)c(CO)cnc12`, the melting point lay in the range of 188 to 189 °C.
With `O=C(O)C1=CS[C@@H]2/C(=C\c3cc4c(s3)CCN(Cc3ccccc3)C4)C(=O)N12` the figure was 198 °C; with `CC(C)Oc1ccc2c(c1)Oc1ccccc1S2(=O)=O`, 94 to 95 °C; with `CSc1ccc(C2=C(c3ccc(CO)cc3)CCC2)cc1`, 82 to 85 °C.
`CC(C)(C)OC(=O)C1CSC(C2CC3CCC2C3)N1C(=O)CNC(=O)Nc1cccc(CC(=O)O)c1` (mixture of isomers): the melting point worked out at 115 °C.
`COc1ccc(CNC(=O)c2ccc3ccccc3c2Br)cc1` returned a melting point of 155 °C.
With `O=c1c([N+](=O)[O-])c(Cl)nc2sc(CCC3CCCCC3)nn12` the figure was 136 to 137 °C; with `CCOC(=O)c1c(C(C)C)csc1N`, 61 to 61.5 °C.
As for `COCc1c(C(=O)OC(C)C)ncc2[nH]c3cccc(Oc4ccc(Cl)cn4)c3c12`, the melting point fell in the range of 190 to 191 °C.
On to `O=C(Nc1ccc2nc(CN3CCCC3)ccc2c1)c1ccc(-c2ccc(Cl)cc2)nc1`, for which the melting point was 225 to 227 °C.
Consider `CCCCCCCCCCCCCCCCCCN(C)P1OCC2(CO1)COP(N(C)CCCCCCCCCCCCCCCCCC)OC2` (configuration not stated), for which the melting point fell in the range of 70 to 72 °C.
`CC(C)(C)OC(=O)NCC(=O)NCC(=O)NCC(=O)O` (Boc-Gly-Gly-Gly-OH) came in with a melting point of 115 to 120 °C.
Molecule `CC(C)(C)OC(=O)N1CC[C@H](O)[C@H](F)C1` (relative stereo) returned a melting point of 48 °C.
On to `CCOc1ncc(C(C)=O)cc1C(=O)Nc1c(C(N)=O)n[nH]c1CC`, for which the melting point lay in the range of 217 to 219 °C.
With `O=P(O)(O)CCCCCCCCCCCC(F)(F)C(F)(F)C(F)(F)C(F)(F)F`, the melting point was in the range of 93 to 96 °C.
The figure for `CCCCc1ccc(-c2c(C)[nH]c(=O)n2C)cc1` is 180 °C; for `O=C(Cl)N1CC=C(c2ccccc2)CC1` it is 63 °C; for `CCOC(=O)/C=C(C)/C(F)=C/C=C(C)/C=C/c1c(Cl)cc(OC)c(C)c1Cl` it is 127 to 132 °C.
Regarding `CCc1nn(CC2CC2)c2cc(C(=O)Nc3c(Cl)cncc3Cl)ccc12`, the melting point lay in the range of 148 to 150 °C.
Turning to `CN(C)C1CCc2[nH]c3cccc(OCc4ccccc4)c3c2C1` (configuration not stated), the melting point fell in the range of 207 to 209 °C.
For `CS(=O)(=O)N1CCN([C@@H](CNC(=O)c2ccc(OCc3cccc4ccccc34)cc2)C(=O)NO)CC1`, the melting point turned out to be 170 °C.
With `COCCOC(=O)Nc1cccc(C)c1COc1cccn2c(C=O)c(C)nc12` the figure was 119 to 120 °C.
The figure for `O=C(O)CCCCNC(=O)CCCCC1CCSS1` (configuration not stated) is 98 to 100 °C; for `S=C(NCc1ccccc1)Nc1nccs1` it is 165 to 167 °C.
The molecule `CN1CCCCc2[nH]c3ccccc3c2CC1` came in with a melting point of 128 to 131 °C.
The molecule `O=C1NCc2ccccc2N1` displayed a melting point of 142 °C.
The figure for `CSC(=NC(=O)COC(C)=O)N(C)N=Cc1ccccc1` is 115 to 117 °C; for `Nc1c(F)c(N2CCC(n3cc(-c4ccccc4)nn3)C2)c(F)c2c1c(=O)c(C(=O)O)cn2C1CC1` (configuration not stated) it is 265 °C; for `COc1ccc(-c2ccnc(N3CCN(c4c(C)c(C)c5c(c4C)CC(C)(C)O5)CC3)n2)cc1` it is 156 to 159 °C.
Molecule `Fc1cccc(-c2ccc3nnn(Cc4ccc5ncccc5c4)c3n2)c1` showed a melting point of 145 to 147 °C.
The molecule `O=C(O)c1c(C(F)(F)F)nc2ccccc2c1O` had a melting point of 262 °C.
In the case of `CN(C)c1ccc(C(=O)Nc2nc(-c3ccco3)c(C(=O)C3CCOCC3)s2)cc1`, the melting point is 238 to 240 °C.
Turning to `CCC(C)CNN(NCC(C)CC)C(=O)c1cc(NC(=O)CCl)cc(C(N)=O)c1` (configuration not stated), the melting point is 160 to 162 °C.
With `O=c1c(O)c(CCCCCO)oc2ccccc12` the figure was 111 to 112 °C; with `CC(C)(C)C(=O)N1CCSC1=S`, 48 to 50 °C.
For the molecule `Cc1ccn(-c2ccc(C(=O)N3Cc4cccnc4Nc4ccccc43)c(C(F)(F)F)c2)n1`, the melting point fell in the range of 183 to 185 °C.
With `O=C(O)CC1=C(c2ccccc2)c2ccccc2OC1` the figure was 147 to 149 °C; with `CS(=O)(=O)c1cc(C(=O)N=C(N)N)ccc1N1CCC(N)CC1`, 239 to 241 °C.
On to `CCN1C(=O)C(C)(C)c2cc(-c3nc4ccccc4[nH]3)ccc21`, for which the melting point lay in the range of 263 to 265 °C.
In turn, `CCc1nc2c(C)cc(C)nc2n1Cc1ccc(C2(C(=O)O)Cc3ccccc3C2)s1` returned a melting point of 243 to 244 °C.
Consider `CCCCCCCCCCOc1ccc2c(=O)c3cccc(C(=O)OCC)c3oc2c1CCC(=O)OCC`, for which the melting point was 69 to 70 °C.
Regarding `O=C(Cc1ccc(Cl)c(Cl)c1)NC1N=C(C2CC2)c2ccccc2N(CC(F)(F)F)C1=O` (single isomer, unassigned; (+)), the melting point fell in the range of 193 to 194 °C.
The figure for `COc1cccc2c(=O)c(-c3cccc(C(F)(F)F)c3Cl)nn(Cc3ccc(F)cc3F)c12` is 141 to 142 °C.
As for `COC(=O)c1nn(Cc2ccc(Cl)cc2Cl)c2ccccc12`, the melting point fell in the range of 168 to 170 °C.
The figure for `CCC(C(O)c1ccc(Cl)cc1)n1ncn(-c2ccc(N3CCN(c4ccc(O)cc4)CC3)cc2)c1=O` (configuration not stated) is 270 °C.
With `CCc1cn(C[C@@H](C)O)c2ccc(F)c(Cl)c12` the figure was 87 to 88 °C; with `NC(=O)N(O)Cc1ccc(CCCCCC(F)(F)F)s1`, 94 °C.
The figure for `CN1CCCC2(CCn3c(c(C4=C(c5cn(C)c6ccccc56)C(=O)NC4=O)c4ccccc43)C2)C1` (configuration not stated) is 144 to 146 °C; for `COc1ccccc1C1=CC(N2CCN(Cc3ccc(C)cc3)CC2)=NC12C=CC(=O)C=C2` it is 147 °C; for `CCCCCCC(c1cccc(C(=O)NC(c2ccccc2)c2ccccc2)c1)c1nnn[nH]1` (configuration not stated) it is 198 to 200 °C.
Consider `O=C(N[C@@H]1CCC[C@H]1O)C(O)=CC(=O)c1cc(Cc2ccc(F)cc2F)cn(Cc2ccccc2F)c1=O`, for which the melting point fell in the range of 55 to 57 °C.
Consider `CCN1CCN(Cc2ccc(COc3cccc4c3CN(C3CCC(=O)NC3=O)C4=O)cc2)CC1=O` (configuration not stated), for which the melting point lay within 163 to 165 °C.
For the molecule `O=C(Cc1cccc2ccccc12)Nc1cc([C@H]2C[C@@H](NC(=O)CC3CC3)C2)[nH]n1`, the melting point was found to be 93.2 °C.
With `O=C(O)c1cccc(OCCCCCCc2cccc(OCc3ccccc3)c2OCc2ccccc2)c1`, the melting point turned out to be 72 °C.
As for `CN1CCC(Oc2ccc([N+](=O)[O-])cc2)(c2ccccc2)CC1`, the melting point was in the range of 136 to 138 °C.
The figure for `CCCCOCCOc1ccc(-c2ccc3c(c2)C=C(C(=O)O)CCN3c2csc(C)n2)cc1` is 155 to 158 °C; for `O=C(NC1CSc2ccccc2NC1=O)OCc1ccccc1` (configuration not stated) it is 149 to 151 °C.
For the molecule `CCOC(=O)N1CCc2nc3c(O)c(Br)cc(Br)c3c(C)c2CC1`, the melting point stood at 179 °C.
`CCC(=O)c1ccc(CCN(C(C)=O)S(=O)(=O)c2ccc(Cl)cc2)cc1` came in with a melting point of 91 to 92 °C.
Molecule `N#CCCNC(=O)c1cccc(-c2ccc3c(c2)C(c2ccc(Cl)cc2Cl)CCO3)c1` (configuration not stated) yielded a melting point of 154 to 155 °C.
Turning to `Nc1cc(Br)ccc1-c1ccc(Br)cc1N`, the melting point was in the range of 118 to 119 °C.
In turn, `CC12CC(=O)C3C(CCC4CC5OC5CC43C)C1CCC2C#N` (configuration not stated) returned a melting point of 206 to 208 °C.
The molecule `CC1(C)CC(=O)Nc2c(CCN3CCN(C4=NS(=O)c5ccccc54)CC3)cc(F)cc21` (configuration not stated) showed a melting point of 235 °C.
Regarding `CC(=O)CN1C(=O)c2ccccc2C1=O`, the melting point was 92 to 94 °C.
`CC(C)Cn1nc(OCCCCc2ccc(OC(C)C)cc2Oc2ncc(C(F)(F)F)cc2Cl)cc1CCC(=O)O` displayed a melting point of 122 to 123 °C.
`Cc1ccc(C(=O)c2cccnc2C(=O)O)cc1` had a melting point of 168 to 170 °C.
As for `NCC1Cc2cc(-c3ccccc3Cl)cc(F)c2O1` (configuration not stated), the melting point is > 250 °C.
`COC(=O)C1Cc2c([nH]c3ccccc23)C(c2cc(OC)ccc2OC)N1C(=O)CCl` (configuration not stated) showed a melting point of 108 to 111 °C.
For `CCCCc1nc(Cl)c(COc2ccccn2)n1Cc1ccc(-c2ccccc2-c2nnn[nH]2)cc1`, the melting point lay in the range of 98 to 100 °C.
The molecule `COC(=O)C(C)(C)OCc1cc(-c2ccc(Cl)s2)no1` returned a melting point of 128 to 130 °C.
In the case of `Oc1nc2cc(Br)c3ccccc3c2nc1O`, the melting point is > 300 °C.
`CCOCc1nc2c(N)nc3c(c2n1CCCCS(=O)(=O)NC)CCCC3` returned a melting point of 188 to 192 °C.
`Cc1oc(-c2ccccc2)nc1CC=Cc1ccc(CC2OC(=O)NC2=O)cc1` (configuration not stated) yielded a melting point of 168 to 169 °C.
As for `CCCCCCCNC(=O)Nc1ccccc1C(=O)Nc1c(C(C)C)cccc1C(C)C`, the melting point was 123 to 125 °C.
The figure for `Cc1cnc(-c2cc3c(OC[C@@H](O)CN4CCC(c5ccc6ccccc6c5)CC4)cccc3s2)o1` is 138 to 139 °C; for `OCC1c2ccccc2-c2c1c1ccccc1c1ccccc21` (configuration not stated) it is 143 to 145 °C; for `NCC1CCN(Cc2ccccc2)CC1` it is 88 °C.
The figure for `CCCCC(Oc1c(Br)cc(-c2c3ccccc3c(Br)c3sc4ccccc4c23)cc1Br)C(=O)O` (configuration not stated) is 212 to 213 °C.
The figure for `CCc1cc2[nH]c(=O)c(=O)[nH]c2c([N+](=O)[O-])c1Cl` is > 330 °C; for `COc1ccc(-c2nc3cccc(C(N)=O)c3[nH]2)cc1` it is 261 to 263 °C; for `O=C(O)CCc1cn(Cc2ccc(OCc3ccc(-c4ccccc4)cn3)cc2)cc1-c1ccccc1` it is 169 to 170 °C.
Molecule `O=[N+]([O-])c1cc(Cl)ccc1N1CCc2cc(Cl)ccc21` returned a melting point of 130 to 133 °C.
